Data taken from patent publication US10774082B2, “Quinazoline compound” (Astellas Pharma Inc., priority 2017, dated 2020).
Read-outs that look alike come from different tables or passages of the source.

Tests used:
NCI-H1373 cells = test: Anchorage-independent cell proliferation inhibitory action, NCI-H1373 spheroid three-dimensional culture; format: cell-based, Human; conditions: read-out: IC50 (anchorage-independent cell proliferation inhibition)
Summary of the method: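 KRAS G12C NCI-H1373 cells were grown as spheroids in low-attachment U-bottom wells and treated the next day with compound, six points from 1,000 to 0.3 nM final. After six days at 37°C, viability was read by CellTiter-Glo luminescence. IC50 was fitted by Sigmoid-Emax regression, with DMSO set as 0% and cell-free medium as 100% inhibition.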

[1] = system: ERK phosphorylation (Thr 202/Tyr 204) in NCI-H1373 cells; test: ERK phosphorylation inhibitory action in NCI-H1373 (Cell ELISA); format: cell-based, Human; conditions: read-out: IC50 (ERK phosphorylation inhibition)
Summary of the method: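 KRAS G12C NCI-H1373 cells (2×10^4/well) were treated with compound (six points, 1,000–0.3 nM final) for 2 h. Phospho-ERK Thr202/Tyr204 was measured by in-cell ELISA with an IRDye 800CW secondary antibody. IC50 was fitted by sigmoid-Emax regression against DMSO (0%) and 1 μM trametinib (100%).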

[2] = Homo sapiens, NCI-H1373, 144 h, NCI-H1373 spheroid, six days, CellTiter Glo
[3] = Homo sapiens, NCI-H1373, 2 h, NCI-H1373 cells, cultured for 2 hours, 100% = 1 μM Trametinib
[4] = NCI-H1373 spheroid, six days, CellTiter Glo
[5] = NCI-H1373 cells, cultured for 2 hours, 100% = 1 μM Trametinib

| SMILES | IC50 (NCI-H1373 cells; [2]) [nM] | IC50 [1, 3] [nM] | other results |
| --- | --- | --- | --- |
| C=CC(=O)N1CC2(CCN(c3nc(OC4CCN(C)CC4)nc4c(OCC)c(-c5c(C)ccc6[nH]ncc56)c(C5CC5)cc34)CC2)C1 [Ex 2] | 6.2 | 4.4 | – |
| C=CC(=O)N1CC2(CCN(c3nc(OC4CCN(C)CC4)nc4c(OCC(F)F)c(-c5c(C)ccc6[nH]ncc56)c(C5CC5)cc34)CC2)C1 [Ex 3] | 4.7 | 3.3 | – |
| C=CC(=O)N1CC2(CCN(c3nc(OC4CCN(CC)CC4)nc4c(OCC)c(-c5c(C)ccc6[nH]ncc56)c(C=C)cc34)CC2)C1 [Ex 7] | 11 | 8.8 | – |
| C=CC(=O)N1CC2(CCN(c3nc(OC4CCN(CCOC)CC4)nc4c(OCC(F)(F)F)c(-c5c(C)ccc6[nH]ncc56)c(C5CC5)cc34)CC2)C1 [Ex 25] | – | 2.5 | – |
| C=CC(=O)N1CC2(CCN(c3nc(OC4CCN(CCOC)CC4)nc4c(OCC(F)(F)F)c(-c5c(C)ccc6[nH]ncc56)c(C=C)cc34)CC2)C1 [Ex 26] | – | 3.3 | – |
| C=CC(=O)N1CC2(CCN(c3nc(OC4CCN(CCCOC)CC4)nc4c(OCC(F)(F)F)c(-c5c(C)ccc6[nH]ncc56)c(C5CC5)cc34)CC2)C1 [Ex 28] | – | 3.5 | – |
| C=CC(=O)N1CC2(CCN(c3nc(OC4CCN(C5CCOCC5)CC4)nc4c(OCC(F)(F)F)c(-c5c(C)ccc6[nH]ncc56)c(C=C)cc34)CC2)C1 [Ex 30] | 5.4 | 3.1 | – |
| C=CC(=O)N1CC2(CCN(c3nc(OC[C@@H]4CCCN4C)nc4c(OC5CCC5)c(-c5c(C)ccc6[nH]ncc56)c(C=C)cc34)CC2)C1 [Example 15] | – | – | IC50 (NCI-H1373 cells; Homo sapiens, NCI-H1373, 144 h): 14 nM; IC50 ([1]; Homo sapiens, NCI-H1373, 2 h): 11 nM |
| C=CC(=O)N1CC2(CCN(c3nc(OC[C@@H]4CCCN4C)nc4c(OCC)c(-c5c(C)ccc6[nH]ncc56)c(C=C)cc34)CC2)C1 [Example 16] | – | – | IC50 (NCI-H1373 cells; Homo sapiens, NCI-H1373, 144 h): 10 nM; IC50 ([1]; Homo sapiens, NCI-H1373, 2 h): 9.1 nM |
| C=CC(=O)N1CC2(CCN(c3nc(OC4CCN(C5COC5)CC4)nc4c(OCC)c(-c5c(C)ccc6[nH]ncc56)c(C5CC5)cc34)CC2)C1 [Example 34] | 7.5 | 5.8 | – |
| C=CC(=O)N1CC2(CCN(c3nc(OC4CCN(CCOC)CC4)nc4c(OCC(F)(F)F)c(-c5c(C)ccc6[nH]ncc56)c(C5CC5)cc34)CC2)C1 [Example 35] | – | – | IC50 (NCI-H1373 cells; [4]): 2.5 nM; IC50 [1, 5]: 2.5 nM |
| C=CC(=O)N1CC2(CCN(c3nc(OC4CCN(CCOCC)CC4)nc4c(OCC(F)(F)F)c(-c5c(C)ccc6[nH]ncc56)c(C=C)cc34)CC2)C1 [Example 37] | – | – | IC50 (NCI-H1373 cells; [4]): 8.8 nM; IC50 [1, 5]: 2.5 nM |
| C=CC(=O)N1CC2(CCN(c3nc(OC4CCN(CC(C)(C)O)CC4)nc4c(OCC(F)(F)F)c(-c5c(C)ccc6[nH]ncc56)c(C=C)cc34)CC2)C1 [Example 40] | – | – | IC50 (NCI-H1373 cells; [4]): 5.1 nM; IC50 [1, 5]: 3.1 nM |
| C=CC(=O)N1CC2(CCN(c3nc(N4CCN(C)CC4)nc4c(OCC(F)(F)F)c(-c5c(C)ccc6[nH]ncc56)c(C=C)cc34)CC2)C1 [Example 50] | 16 | 6.4 | – |
| C=CC(=O)N1CC2(CCN(c3nc(N4CC(N(C)C)C4)nc4c(OCC(F)(F)F)c(-c5c(C)ccc6[nH]ncc56)c(C=C)cc34)CC2)C1 [Example 65] | 27 | 9.3 | – |

More lines, main results first:

| IC50 (NCI-H1373 cells; [2]) [nM] | IC50 [1, 3] [nM] | SMILES | other results |
| --- | --- | --- | --- |
| 4.3 | 3 | C=CC(=O)N1CC2(CCN(c3nc(OC4CCN(C5CCOCC5)CC4)nc4c(OCC(F)(F)F)c(-c5c(C)ccc6[nH]ncc56)c(C=C)cc34)CC2)C1 (single isomer, unassigned) [Ex 39] | – |
| 320 | 210 | C=CC(=O)N1CCN(c2nc(OC3CCN(C)CC3)nc3c(F)c(-c4c(C)ccc5[nH]ncc45)c(Cl)cc23)CC1 [Compound C, reference compound] | – |
| 3.4 | 2.9 | C=CC(=O)N1CC2(CCN(c3nc(OC[C@@H]4CCCN4C)nc4c(OCC(F)F)c(-c5c(C)ccc6[nH]ncc56)c(C5CC5)cc34)CC2)C1 [Ex 4] | – |
| 6.1 | 3.7 | C=CC(=O)N1CC2(CCN(c3nc(OC4CCN(C)CC4)nc4c(OCC)c(-c5c(C)ccc6[nH]ncc56)c(C=C)cc34)CC2)C1 [Ex 24] | – |
| 10 | 4.2 | C=CC(=O)N1CC2(CCN(c3nc(OC4CCN(CCOCC)CC4)nc4c(OCC(F)(F)F)c(-c5c(C)ccc6[nH]ncc56)c(C=C)cc34)CC2)C1 [Example 29] | – |
| 7.1 | 5.7 | C=CC(=O)N1CC2(CCN(c3nc(OC4CCN(CCOC)CC4)nc4c(OCC(F)F)c(-c5c(C)ccc6[nH]ncc56)c(C5CC5)cc34)CC2)C1 [Example 32] | – |
| 8.7 | 4.6 | C=CC(=O)N1CC2(CCN(c3nc(OC4CCN(C5COC5)CC4)nc4c(OCC(F)(F)F)c(-c5c(C)ccc6[nH]ncc56)c(C=C)cc34)CC2)C1 [Example 33] | – |
| 16 | 6.7 | C=CC(=O)N1CC2(CCN(c3nc(OC4CCN(C)CC4F)nc4c(OCC(F)(F)F)c(-c5c(C)ccc6[nH]ncc56)c(C=C)cc34)CC2)C1 (stereo not drawn) [Example 52] | – |
| 21 | 7.7 | C=CC(=O)N1CC2(CCN(c3nc(OC4CCN(Cc5ccccn5)CC4)nc4c(OCC(F)(F)F)c(-c5c(C)ccc6[nH]ncc56)c(C=C)cc34)CC2)C1 [Example 56] | – |
